From patent US8466171B2, “Fused heterocyclic compounds useful as modulators of nuclear hormone receptor function” (Bristol-Myers Squibb Company, priority 2007, dated 2013)
Numbering of substitutions follows the chain as printed. pIC50, pKi: −log10 of the molar value.

Columns and labels:
immature castrated rats [1] = settings: cited from earlier work; for EC50 (increase in organ weight): immature castrated rats, dosing for 3 days
androgen receptor (AR) = biological target: T1, androgen receptor (AR) (Homo sapiens, UniProt P10275); assay: MDA-MB-453 Androgen Receptor Transactivation Assay; type: cell-based; settings: MDA-MB-453 cells, PSA-Luc reporter, 3 nM DHT, 48 hour incubation
T1 sequence (P10275 1-920): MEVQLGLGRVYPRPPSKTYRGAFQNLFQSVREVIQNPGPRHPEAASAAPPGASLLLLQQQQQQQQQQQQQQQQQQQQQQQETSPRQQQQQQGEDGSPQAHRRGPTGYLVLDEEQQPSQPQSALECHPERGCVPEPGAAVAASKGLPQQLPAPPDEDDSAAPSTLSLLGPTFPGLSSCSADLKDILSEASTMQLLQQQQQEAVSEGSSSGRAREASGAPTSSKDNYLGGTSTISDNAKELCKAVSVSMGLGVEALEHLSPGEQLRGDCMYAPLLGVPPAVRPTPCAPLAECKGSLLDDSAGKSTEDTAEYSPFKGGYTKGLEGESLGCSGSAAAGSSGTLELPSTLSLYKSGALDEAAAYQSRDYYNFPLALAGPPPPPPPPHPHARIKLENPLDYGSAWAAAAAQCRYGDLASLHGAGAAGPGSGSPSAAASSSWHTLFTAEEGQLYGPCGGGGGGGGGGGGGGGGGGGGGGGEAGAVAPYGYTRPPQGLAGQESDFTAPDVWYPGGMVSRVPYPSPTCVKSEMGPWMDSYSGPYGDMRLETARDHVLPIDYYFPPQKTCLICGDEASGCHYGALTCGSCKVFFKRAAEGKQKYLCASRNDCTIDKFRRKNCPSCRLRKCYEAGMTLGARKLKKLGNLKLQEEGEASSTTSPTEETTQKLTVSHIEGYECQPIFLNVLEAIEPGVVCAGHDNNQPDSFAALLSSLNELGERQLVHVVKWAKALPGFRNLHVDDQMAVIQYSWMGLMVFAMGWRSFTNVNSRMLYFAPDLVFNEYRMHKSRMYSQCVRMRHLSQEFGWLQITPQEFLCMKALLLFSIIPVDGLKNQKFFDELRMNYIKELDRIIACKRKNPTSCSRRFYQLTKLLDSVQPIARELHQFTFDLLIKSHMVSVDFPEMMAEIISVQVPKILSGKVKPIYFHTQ
Source text: Compounds can be tested in a cell based transactivation assay used to measure the antagonism of androgen receptor (AR) transcriptional activity. […] The human breast adenocarcinoma MDA-MB-453 cell line (American Type Culture Collection, Rockville, Md., ATCC#: HTB-131), expressing a functional endogenous wild type AR, was transiently transfected with a reporter plasmid and tested for AR dependent transactivation activity in the absence or presence of test compounds. The pGL3 PSA-Luc reporter plasmid is comprised of the cDNA for the firefly luciferase gene and the upstream promoter sequences containing the androgen response elements (AREs) of the prostate specific antigen (PSA). This plasmid functions as a reporter for the transcription-modulating activity of the AR. In order to detect antagonists, the transactivation assay is conducted in the presence of constant concentration of the natural AR hormone (DHT) to induce a defined reporter signal. Addition of increasing concentrations of the suspected antagonist will decrease the reporter signal (luciferase activity).
MDA-MB-453 and 22 RV1 cells were maintained in DMEM (Cellgro, Cat. #10-014-CM) or RPMI 1640 (Gibco Cat. #11875-085) respectively and supplemented with 10% FBS (Invitrogen/GIBCO Life Science). Cells were bulk transfected in flasks with 1.3 ug/ml pGL3 PSA-Luc plasmid by using the Lipofectamine 2000 Reagent (Invitrogen, Cat. #11668-019) and serum-free Opti-MEM I media (Invitrogen, Cat#31985-070) according to the manufacturer's optimized conditions. Transfection was conducted at 37° C. with 5% CO2 for 16-18 hours. Following transfection, cells are washed, treated with trypsin, counted, and seeded in a 96-well plate at 30,000 cells per well in DMEM containing 10% Charcoal/Dextran Treated Fetal Bovine Serum (Gibco Cat. #11054-020) for MDA-MB-453 cells or RPMI 1640 (Gibco Cat. #110835) containing 10% FBS (Invitrogen/GIBCO Life Science) for 22 RV1 cells.
Following transfection, cells were incubated in the absence (blank) or presence (control) of 3 nM DHT (Sigma, Cat. #A-8380) and in the presence or absence of the standard antiandrogen bicalutamide or test compounds ranging in concentrations from 10^−10 to 10^−5M. Duplicates were used for each sample. The compound dilutions were performed by the Tecan Genesis (Tecan, Triangle Park, N.C.). After a 48 hour incubation, luciferase activity was measured using the Steady-Glo Luciferase Assay System (Promega, Cat. #E2550) according to manufacturer's specifications and luminescence was measured on a Packard TopCount (PerkinElmer). For each luciferase sample reading, the percent control (in absence of compounds) was calculated as: % Control=100×[averagesample−averageblank]/[averagecontrol−averageblank] Data was plotted and the IC50 value was defined as the concentration of compound that inhibited 50% of the luciferase activity for the controls.

wild type AR = biological target: T2, wild type AR (Homo sapiens, UniProt P10275); assay: AR Binding Assay (whole cell, MDA-MB-453, competition with [3H]-DHT); settings: MDA-MB-453 cells, competition with 2 nM [3H]-DHT, Cheng-Prusoff
T2 sequence (P10275 1-920 Q868H): T1 sequence (P10275 1-920) with Q868H
Experimental: For the whole cell binding assay, human breast adenocarcinoma MDA-MB-453 cells (American Type Culture Collection, Rockville, Md., ATCC #: HTB-131), expressing a functional endogenous wild type AR, are grown to near confluency in T-225 tissue culture flasks containing Dulbecco's Modified Eagle Medium (DMEM) (Mediatech CAT #45000-668) supplemented with 10% fetal bovine serum (FBS) (Invitrogen/GIBCO Life Science). In order to remove any endogenous ligand that might be complexed with the receptor in the cells, the tissue culture media is removed and the cells are incubated overnight at 37° C. in serum-free DMEM. The next day, cells are rinsed with magnesium and calcium free Phosphate Buffered Saline (PBS) (Invitrogen/GIBCO Life Science), harvested using Cell Stripper Buffer (Mediatech) and re-suspended in serum-free DMEM to achieve a final assay concentration of 4×10^5 cells/well of a 96-well assay plate. […] After the remaining media is removed, cells are washed three times with PBS and harvested onto UniFilter GF/B plates (PerkinElmer).
Two replicates are used for each sample. After 90 minutes at room temperature, cells are harvested by filtering through a GF/B filter plate (PerkinElmer) followed by washing with ice-cold 1×PBS (without calcium and magnesium) to remove unbound label. […] After correcting for non-specific binding, IC50 values are determined. The IC50 value is defined as the concentration of competing ligand needed to reduce specific binding by 50%. […] The Ki values are determined by application of the Cheng-Prusoff equation to the IC50 values where: […]
See e.g., D. Rodbard, Mathematics and Statistics of Ligand Assays: An Illustrated Guide: In: J. Langon and J. J. Clapp, eds., Ligand Assay, Masson Publishing U.S.A., Inc., New York, pp. 45-99 (1981).

immature castrated rats [2] = assay: Immature Rat Prostate Weight (IRPW) Assay; type: in vivo; settings: TP versus free T
Source text: The activity of compounds of Formula (I) as AR antagonists can be investigated in an immature male rat model, as described in L. G. Hershberger et al., Proc. Soc.
Male sexual accessory organs, such as the prostate and seminal vesicles, play an important role in reproductive function. These glands are stimulated to grow and are maintained in size and secretory function by the continued presence of serum testosterone (T), which is the major serum androgen (>95%) produced by the Leydig cells in the testis under the control of the pituitary luteinizing hormone (LH) and follicle stimulating hormone (FSH). […] Adrenal androgens also contribute about 20% of total DHT in the rat prostate, compared to 40% of that in 65-year-old men. […] However, this is not a major pathway, since in both animals and humans, castration leads to almost complete involution of the prostate and seminal vesicles without concomitant adrenalectomy. […] […] […] Since the male sex organs are the tissues most responsive to modulation of the androgen activity, this model is used to determine the androgen dependent growth of the sex accessory organs in immature castrated rats.
Male immature rats (19-20 days old Sprague-Dawley, Harlan Sprague-Dawley) are castrated under metofane anesthesia. […] Experimental groups are as follows:
At the end of the 3-day treatment, the animals are sacrificed, and the ventral prostate weighed. […]

Compound | serum concentrations of T and DHT relative to that of TP (immature castrated rats [1]; 2 hours after subcutaneous injection) [times] | EC50 (increase in organ weight) (immature castrated rats [1]) | pIC50 (androgen receptor (AR)) | pKi (wild type AR) | potency relative to free T (immature castrated rats [2])
C[C@]12CC[C@H]3[C@@H](CCC4=CC(=O)CC[C@@]43C)[C@@H]1CC[C@@H]2O [T, testosterone] | 5 | about 1 mg | – | – | –
C[C@]12CC[C@](C)(O1)[C@@H]1[C@H]2CN(c2ccc(C#N)c(C(F)(F)F)c2)S1(=O)=O (racemic) [Example 18, rac-4-((1R,2R,6R,7S)-1,7-dimethyl-3,3-dioxido-10-oxa-3-thia-4-azatricyclo[5.2.1.0^2,6]dec-4-yl)-2-(trifluoromethyl)benzonitrile] | – | – | 5.87 | 6.65 | –
CCC(=O)O[C@H]1CC[C@H]2[C@@H]3CCC4=CC(=O)CC[C@]4(C)[C@H]3CC[C@]12C [TP, testosterone propionate] | – | ~0.03 mg | – | – | 10-30 fold
C[C@]12C=C[C@H](O1)[C@@H]1[C@H]2CN(c2ccc(C#N)c(C(F)(F)F)c2)S1(=O)=O (racemic) [Example 21i, rac-4-((1R,2R,6R,7S)-7-methyl-3,3-dioxido-10-oxa-3-thia-4-azatricyclo[5.2.1.0^2,6]dec-8-en-4-yl)-2-(trifluoromethyl)benzonitrile] | – | – | 5.94 | 6.76 | –
COC(=O)N[C@@H]1C[C@H]2O[C@@H]1[C@H]1[C@@H]2CN(c2ccc(C#N)c(C(F)(F)F)c2)S1(=O)=O [Example 41i, methyl((1S,2R,6R,7R,9R)-4-(4-cyano-3-(trifluoromethyl)phenyl)-3,3-dioxido-10-oxa-3-thia-4-azatricyclo[5.2.1.0^2,6]dec-9-yl)carbamate] | – | – | 5.08 | 6.45 | –
